The values that follow come from the Kinase Knowledgebase extract (Sharma et al. 2016).

For the assay, the target named is EGFR (UniProt P00533). Conditions: her-14.
Sequence of EGFR (P00533 whole entry, looked up): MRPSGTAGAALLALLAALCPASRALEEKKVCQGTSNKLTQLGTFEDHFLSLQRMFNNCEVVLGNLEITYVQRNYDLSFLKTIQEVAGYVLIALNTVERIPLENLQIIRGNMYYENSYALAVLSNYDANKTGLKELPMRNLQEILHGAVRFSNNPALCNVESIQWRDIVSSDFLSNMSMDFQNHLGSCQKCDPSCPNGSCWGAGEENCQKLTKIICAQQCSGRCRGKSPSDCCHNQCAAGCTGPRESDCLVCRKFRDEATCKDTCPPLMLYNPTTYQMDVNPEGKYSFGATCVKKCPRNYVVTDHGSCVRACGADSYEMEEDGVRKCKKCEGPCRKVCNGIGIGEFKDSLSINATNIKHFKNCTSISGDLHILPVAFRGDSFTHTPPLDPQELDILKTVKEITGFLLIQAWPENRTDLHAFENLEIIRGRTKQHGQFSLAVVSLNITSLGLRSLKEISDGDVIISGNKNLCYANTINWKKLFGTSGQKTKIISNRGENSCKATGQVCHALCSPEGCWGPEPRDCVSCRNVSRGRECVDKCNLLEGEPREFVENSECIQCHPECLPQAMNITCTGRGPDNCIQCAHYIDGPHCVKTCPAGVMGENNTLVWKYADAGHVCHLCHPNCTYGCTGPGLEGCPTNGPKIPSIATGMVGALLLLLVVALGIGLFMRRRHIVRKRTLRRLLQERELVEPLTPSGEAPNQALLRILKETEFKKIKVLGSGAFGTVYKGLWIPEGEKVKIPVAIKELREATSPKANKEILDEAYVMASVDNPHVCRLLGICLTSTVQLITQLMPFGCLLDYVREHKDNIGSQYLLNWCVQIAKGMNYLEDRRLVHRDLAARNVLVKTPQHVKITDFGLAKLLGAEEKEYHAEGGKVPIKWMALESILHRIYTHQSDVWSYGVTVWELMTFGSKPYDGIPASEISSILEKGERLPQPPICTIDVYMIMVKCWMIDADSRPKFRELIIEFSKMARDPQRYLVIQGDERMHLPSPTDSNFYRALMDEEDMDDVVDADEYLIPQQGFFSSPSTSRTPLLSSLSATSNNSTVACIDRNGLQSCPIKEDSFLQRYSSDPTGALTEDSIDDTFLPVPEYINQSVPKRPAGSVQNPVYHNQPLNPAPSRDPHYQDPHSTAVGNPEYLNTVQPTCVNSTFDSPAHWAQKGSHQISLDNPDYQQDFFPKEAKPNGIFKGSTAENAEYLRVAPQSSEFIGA
What is called IC50 is the concentration that inhibits the measured activity by half. For the compound `N#C/C(=C\c1ccc(O)c(O)c1)C(=O)NCCNC(=O)/C(C#N)=C/c1ccc(O)c(O)c1`, the IC50 came out at 10 µM.
`N#C/C(=C\c1cc(O)c(O)c([N+](=O)[O-])c1)C(=O)NCCCNC(=O)/C(C#N)=C/c1cc(O)c(O)c([N+](=O)[O-])c1`: the IC50 worked out at 35 µM.
For `N#C/C(=C\c1ccc(O)c(O)c1)S(=O)(=O)/C(C#N)=C/c1ccc(O)c(O)c1` the value was 2 µM; for `N#C/C(=C\c1ccc(O)c(O)c1)C(=O)NCCCCCCCCCCNC(=O)/C(C#N)=C/c1ccc(O)c(O)c1`, 25 µM.
For `N#C/C(=C\c1ccc(O)c(O)c1)C(=O)NCCCCNC(=O)/C(C#N)=C/c1ccc(O)c(O)c1` the value was 5 µM.
As for `N#C/C(=C\c1ccc(O)c(O)c1)C(=O)NCCCCCNC(=O)/C(C#N)=C/c1ccc(O)c(O)c1`, the figure is 9 µM.
For the compound `N#C/C(=C\c1ccc(O)c(O)c1)C(=O)NCCCCCCNC(=O)/C(C#N)=C/c1ccc(O)c(O)c1`, the IC50 was 5 µM.
`COc1cc(/C=C(\C#N)C(=O)NCCCCNC(=O)/C(C#N)=C/c2cc(OC)c(O)c([N+](=O)[O-])c2)cc([N+](=O)[O-])c1O` returned an IC50 of more than 80 µM.
As for `N#C/C(=C\c1ccc(O)c(O)c1)C(=O)NC1CCC(CC2CCC(NC(=O)/C(C#N)=C/c3ccc(O)c(O)c3)CC2)CC1` (centres undefined), the figure is 20.3 µM.
In the case of `N#C/C(=C\c1ccc(O)c(O)c1)C(=O)NCN1CCN(C(=O)/C(C#N)=C/c2ccc(O)c(O)c2)CC1`, the IC50 worked out at 5.8 µM.
For `N#C/C(=C\c1ccc(O)c(O)c1)C(=O)NCc1cccc(CNC(=O)/C(C#N)=C/c2ccc(O)c(O)c2)c1` the value was 6 µM; for `N#C/C(=C\c1cc(O)c(O)c(Br)c1)C(=O)NCCCNC(=O)/C(C#N)=C/c1cc(O)c(O)c(Br)c1`, 7.3 µM; for `N#C/C(=C\c1ccc(O)c(O)c1)C(=O)NC1CCCCC1NC(=O)/C(C#N)=C/c1ccc(O)c(O)c1` (centres undefined), 4 µM.
As to `COc1cc(/C=C(\C#N)C(=O)NCCCCNC(=O)/C(C#N)=C/c2cc(Br)c(O)c(OC)c2)cc(Br)c1O`, the IC50 turned out to be 3 µM.
As for `N#C/C(=C\c1cc(O)c(O)c(O)c1)C(=O)NCCCCNC(=O)/C(C#N)=C/c1cc(O)c(O)c(O)c1`, the figure is 5 µM; as for `N#C/C(=C\c1ccc(O)c(O)c1)C(=O)N1CCN(C(=O)/C(C#N)=C/c2ccc(O)c(O)c2)CC1`, 10 µM.
For `N#C/C(=C\c1ccc(O)c(O)c1)C(=O)NCCCN1CCN(CCCNC(=O)/C(C#N)=C/c2ccc(O)c(O)c2)CC1` the value was 7 µM; for `N#C/C(=C\c1ccc(O)c(O)c1)C(=O)NCC1CCCC(CNC(=O)/C(C#N)=C/c2ccc(O)c(O)c2)C1` (centres undefined), 12.5 µM; for `N#C/C(=C\c1ccc(O)c(O)c1)C(=O)NCCN1CCN(C(=O)/C(C#N)=C/c2ccc(O)c(O)c2)CC1`, 6.2 µM.
